Source: US20210165001A1, “COMPOSITIONS AND METHODS FOR DETECTION AND IMAGING OF AMYLOID FIBRILS, AMYLOID PLAQUES, RNA, AND NUCLEOLI” (The University of Hong Kong, priority 2018, published 2021)

Tests used:
Assay type in all cases: biochemical
[1] = biological target: T1, insulin amyloid fibrillation (Homo sapiens, UniProt P01308); experiment: effect of L-ascorbic acid on insulin amyloid fibrillation, thioflavin T fluorescence assay; conditions: detected by thioflavin T
Method: (§1) In kinetics, insulin amyloid fibrillation can be modeled by a sigmoid function with three different phases: lag phase, log phase, and stationary phase. The values of kapp and tlag for insulin amyloid fibrillation were determined using the sigmoid function which was based on the equation shown below (see similar examples of data fitting in Nielsen et al., Biochemistry, 40:6036-6046 (2001); Hwang et al., J. Biol. Chem., 285:41701-41711 (2010); and Donabedian et al., ACS Chem. Neurosci., 6:1526-1535 (2015)).
(§2) where y is the absorbance, emission intensity, or RLS intensity; A1 is the absorbance, emission intensity, or RLS intensity before amyloid fibrillation; A2 is the absorbance, emission intensity, or RLS intensity after amyloid fibrillation; x is the incubation time; xo is the incubation time at which the absorbance, emission intensity, or RLS intensity is at half maximum; and dx is the time constant. Accordingly, the apparent rate constant, kapp, is equivalent to 1/dx, and the lag time, tlag, is given by xo−2dx.
(§3) Insulin was dissolved at 1.0 mg mL^−1 in an acidic buffer ([NaCl]=137 mM, [KCl]=2.7 mM, pH=2.0) in the presence of different amounts (0, 10, 20, 50, 70, 100 mM) of L-ascorbic acid. The solution was incubated at 65° C. and stirred at 300 rpm. Aliquots were withdrawn at a desired time interval. Insulin samples (10 μM) with different incubation times were added to a solution of thioflavin T (10 μM) in a PBS buffer (10.0 mM, pH=7.4). The emission spectra were recorded at 25° C. at an excitation wavelength of 440 nm. Similarly, insulin samples (10 μM) with different incubation times were added to a solution of complex 1-Pt (50 μM) in a PBS buffer (10.0 mM, pH=7.4, 10% DMSO). The emission spectra were recorded at 25° C. at an excitation wavelength of 400 nm. The values of kapp and tlag for insulin amyloid fibrillation were determined from fitting using the sigmoid equation listed above.

[2] = biological target: T1, insulin amyloid fibrillation; experiment: effect of L-ascorbic acid on insulin amyloid fibrillation, complex 1-Pt luminescence assay; conditions: for kapp of insulin amyloid fibrillation / tlag of insulin amyloid fibrillation: detected by complex 1-Pt
Method: as §1, §2, §3

[3] = biological target: T1, insulin amyloid fibrillation; experiment: kinetics of insulin amyloid fibrillation reported by probe (sigmoid fit); conditions: method: Emission; insulin 10 μM; thioflavin T 10 μM (490 nm) or complex 1-Pt 50 μM (650 nm); no L-ascorbic acid
Method: To induce amyloid fibrillation, insulin was dissolved at 1.0 mg mL^−1 in an acidic buffer ([NaCl]=137 mM, [KCl]=2.7 mM, pH=2.0). The solution was incubated at 65° C. and stirred at 300 rpm. Insulin samples with different incubation times were added to a solution of thioflavin T in a PBS buffer (10.0 mM, pH=7.4). The final concentrations of insulin and thioflavin T were both 10 μM. The emission spectra were recorded at 25° C. at an excitation wavelength of 440 nm. Similarly, insulin samples with different incubation times were added to a solution of complex 1-Pt in a PBS buffer (10.0 mM, pH=7.4, 10% DMSO). The final concentrations of insulin and complex 1-Pt were 10 μM and 50 μM, respectively. UV-Vis absorption spectra, emission spectra, and RLS spectra were recorded at 25° C.; the emission spectra were recorded at an excitation wavelength of 400 nm.
as §1, with “(2015)). […]” for “(2015)).”

T1 sequence (P01308 25-54 limits assumed): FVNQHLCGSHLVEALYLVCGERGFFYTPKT
T1 sequence (P01308 90-110 limits assumed): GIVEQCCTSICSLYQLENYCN

Row | kapp of insulin amyloid fibrillation ([1]; L-ascorbic acid 10 mM) | tlag of insulin amyloid fibrillation ([1]; L-ascorbic acid 10 mM) | kapp of insulin amyloid fibrillation ([1]; L-ascorbic acid 20 mM) | tlag of insulin amyloid fibrillation ([1]; L-ascorbic acid 20 mM) | kapp of insulin amyloid fibrillation ([1]; L-ascorbic acid 50 mM) | tlag of insulin amyloid fibrillation ([1]; L-ascorbic acid 50 mM) | kapp of insulin amyloid fibrillation ([1]; L-ascorbic acid 70 mM) | tlag of insulin amyloid fibrillation ([1]; L-ascorbic acid 70 mM) | Structure (SMILES) | inhibition effect on amyloid fibrillation ([2]; L-ascorbic acid 0-100 mM, thioflavin T and complex 1-Pt assays) | kapp of insulin amyloid fibrillation ([2]; L-ascorbic acid 10 mM) | tlag of insulin amyloid fibrillation ([2]; L-ascorbic acid 10 mM) | kapp of insulin amyloid fibrillation ([2]; L-ascorbic acid 20 mM) | tlag of insulin amyloid fibrillation ([2]; L-ascorbic acid 20 mM) | kapp of insulin amyloid fibrillation ([2]; L-ascorbic acid 50 mM) | tlag of insulin amyloid fibrillation ([2]; L-ascorbic acid 50 mM) | kapp of insulin amyloid fibrillation ([2]; L-ascorbic acid 70 mM) | tlag of insulin amyloid fibrillation ([2]; L-ascorbic acid 70 mM) | kapp (apparent rate constant of insulin amyloid fibrillation) [3] | tlag (lag time of insulin amyloid fibrillation) [3]
1 | 0.19 ± 0.09 min⁻¹ | 54.3 ± 0.2 min | 0.17 ± 0.08 min⁻¹ | 57.2 ± 0.3 min | 0.17 ± 0.08 min⁻¹ | 68.3 ± 0.3 min | 0.14 ± 0.07 min⁻¹ | 83.0 ± 0.3 min | O=C1O[C@H]([C@@H](O)CO)C(O)=C1O [L-ascorbic acid] | concentration dependent | 0.18 ± 0.09 min⁻¹ | 53.2 ± 0.2 min | 0.16 ± 0.08 min⁻¹ | 59.2 ± 0.3 min | 0.15 ± 0.07 min⁻¹ | 70.1 ± 0.6 min | 0.12 ± 0.06 min⁻¹ | 85.6 ± 0.6 min |  | 
2 |  |  |  |  |  |  |  |  | Cc1ccc2c(c1)sc(-c1ccc(N(C)C)cc1)[n+]2C.[Cl-] [Thioflavin T, thioflavin T] |  |  |  |  |  |  |  |  |  | 0.23 ± 0.08 min⁻¹ | 54.0 ± 0.1 min
